Tests used:
[1] = molecular target: SARS-CoV-2 Main Protease (SARS-CoV-2) (UniProt P0DTD1)
[2] = molecular target: SARS-CoV-2 Main Protease (SARS-CoV-2) (UniProt P0DTD1); remark: listed apart in the source

SMILES	relative solubility at 20 uM	relative solubility at 100 uM	inhibition ([1]; 20.0 µM) [%]	inhibition ([1]; 50.0 µM) [%]	inhibition ([2]; 50.0 µM) [%]	inhibition ([2]; 20.0 µM) [%]	IC50 [2] [µM]	IC50 [1] [µM]
O=C(CCl)N1CCOc2cccc(-c3cccnc3)c21	1	1	1.76	7.44	-5.89			
C=CC(=O)N(c1ccc(C(C)(C)CC)cc1)C(C(=O)Nc1ccc(Cl)cc1)c1cccnc1 (configuration not stated)	0.82	0.68	16.5	22.7		11.3		
N#Cc1cccc(NC(=O)Nc2c[nH]c3ncccc23)c1	1	0.91		47.3	19.9	0		
COc1ccc(C2CC(c3cccs3)=NN2C(=O)CCl)cc1OC (configuration not stated)	0.95	0.83	99.4	99.2	91.1	95.7	0.969	
Cc1ccnc(NC(=O)Cc2ccc3ccccc3c2)c1	0.98	0.94	3.57	8.23		0		
N#Cc1cccc(NC(=O)Nc2cccnc2)c1	1	1	6.21	10.3		0		
O=C(Nc1nncn1C1CC1)C1CCOc2ccc(Cl)cc21 (configuration not stated)	1	1	46.7	54.6	1.9			0.598
Cc1cccc(NC(=O)Cn2cncc2C)n1	1	1.01	-1.3	-3.38	0			
O=C(CCl)N1CCN(C(c2ccccc2)c2ccccc2)CC1	-0.2	0.01		108	100	100	0.386	
C=CC(=O)N(c1ccc(C(F)(F)F)cc1)C(C(=O)NCCc1cccc(F)c1)c1cccnc1 (configuration not stated)	0.99	0.94	50.7	72.7	100		6.12	
C=CC(=O)N(c1ccc(N(C)C)c(C)c1)C(C(=O)Nc1ccccc1Br)c1cccnc1 (configuration not stated)	0.86	0.79	2.84	8.13		0		
C=CC(=O)N(c1ccc(C(F)(F)F)cc1)C(C(=O)NCCc1cccc(F)c1)c1cncc(C#N)c1 (configuration not stated)	1	0.99	53.5	93.2	96.5		3.01	
O=C(Cc1cc(Cl)cc(Cl)c1)Nc1nncs1	0.84	0.7	13.9	-0.821	0			
NS(=O)(=O)c1ccc(N2CCSCC2)cc1	1	1		-25.9	48.2	29.1		
C=CC(=O)N(C(C(=O)NC(C)(C)C)c1cccnc1)[C@@H]1C[C@@H]1c1ccccc1 (stereo in doubt)	0.97	0.88	-14.4	-6.46		0		
C=CC(=O)N(c1ccc(N(C)C)c(C)c1)C(C(=O)Nc1cccc(CC)c1)c1cccnc1 (configuration not stated)	0.85	0.68	7.05	11.7		0		
O=C(CCl)N1CCN(C(c2ccccc2)C2CCCCC2)CC1 (configuration not stated)	0.98	0.78	95.8	98.1	95.6		0.644	4.13
COc1cccc(N2CCN(C(=O)c3cc(=O)[nH]c4ccccc34)CC2)c1	0.99	0.95	78.5	90.8	83.3		19.7	
C=CC(=O)NCc1ccc(C(C)NC(=O)OC(C)(C)C)cc1 (configuration not stated)	1	1.01		6.84	0	0		
C=CC(=O)N(c1ccc(C(C)C)nc1)C(C(=O)NC(C)(C)C)c1cccnc1 (configuration not stated)	1	0.99	11.7	11.4		0		
C=CC(=O)N(c1ccc(C(C)(C)C)cc1)C(C(=O)NC(C)(C)C)c1cncc(Br)c1 (configuration not stated)	0.99	0.97	14.6	-13.8	0	0		
N#Cc1cc(Cl)cc(NC(=O)Nc2cccnc2)c1	0.99	0.88	23	43.9	36.5	6.78		
Cc1nnc(NC(=O)Nc2cccnc2)s1	1	0.99	1.19	7.32	8.86	4.62		
C=CC(=O)N(c1ccc(C(C)(C)C)cc1)C(C(=O)NCc1ccccc1)c1cccnc1 (configuration not stated)	0.99	0.89	42.3	66.6	100	69.1	14.3	
C=CC(=O)N(c1cc(C(C)(C)C)n[nH]1)C(C(=O)Nc1ccc(Cl)cc1)c1cccnc1 (configuration not stated)	0.78	0.68	6.12	19.5		0		

SMILES	relative solubility at 20 uM	relative solubility at 100 uM	inhibition ([1]; 20.0 µM) [%]	inhibition ([1]; 50.0 µM) [%]	inhibition ([2]; 50.0 µM) [%]	inhibition ([2]; 20.0 µM) [%]	IC50 [2] [µM]	IC50 [1] [µM]
O=C1C(=O)N(Cc2ccc(Br)cc2)c2ccccc21	1.01	0.9	-3.27	0.439	100		0.747	
C=CC(=O)N(c1ccc(C(C)(C)C)cc1)C(C(=O)NCCc1cccc(F)c1)c1cncc(C#N)c1 (configuration not stated)	0.57	0.46	49.6	87.1	89.2		2.47	
Cn1cnnc1CNC(=O)Nc1cc(C(F)(F)F)c[nH]c1=O	1	1	7.84	14.8	3.33			
Cc1ccncc1NC(=O)CCc1nc2cc(Cl)ccc2o1	0.99	1	10.4	13.1	0			
CCN1CCN(Cc2ccccc2CNC(=O)[C@@]2(C)CCN2C(=O)OC(C)(C)C)CC1 (stereo in doubt)	1	1	-6.3	-0.697	13.2			
O=C1CC(c2cccc(NC(=O)Cc3cncnc3)c2)CN1 (configuration not stated)	1	1	3.83	10.8	0			
Cc1nnc(CNC(=O)C2CCOc3ccc(Cl)cc32)n1C1CC1 (configuration not stated)	1	1	6.91	0.282	0			
C=CC(=O)N(c1ccc(C(C)(C)C)cc1)C(C(=O)NC(C)(C)C)c1cncc(OC)c1 (configuration not stated)	1	0.99	-13.4	-6.87	8.47	0.0741		
COCc1cc(Cl)cc(CN2CCN(C(=O)CCl)CC2)c1	0.98	0.99	97.6	99.9	118		1.31	
O=S(=O)(NCCc1ccccc1)c1ccoc1	1	1		-24.5	16.5	0		
Cc1ccncc1NC(=O)CCOC1CC1	1	1	8.26	22	0			
CS(=O)(=O)N(CCc1ccccc1)CC1CCN(C(=O)CCl)CC1	0.96	0.89	23.9	26.1	73.3			
C=CC(=O)N(c1ccc(C(C)(C)C)cc1)C(C(=O)NC(C)(C)C)c1cncc2ccccc12 (configuration not stated)	0.85	0.56	-17.7	-17.5	0	0		
O=C(Nc1ccc([N+](=O)[O-])cc1Cl)c1cccc(Cl)c1	0.76	0.57	-10.8	-11.4		1.31		
CCCN(CC1COc2ccccc2O1)C(=O)c1cc(=O)[nH]c2ccc(Cl)cc12 (configuration not stated)	0.98	0.89	-8.21	-15.6	0			
CC(=O)N[C@@H](Cc1ccc(O)cc1)C(=O)NCc1ccc(Br)cc1 (stereo in doubt)	1	0.99	-20.1	-24.8		0		
C=CC(=O)N(c1ccc(C(C)(C)C)cc1)C(C(=O)NC(C)(C)C)c1cncc(OCC)c1 (configuration not stated)	0.99	0.89	-1.87	2.59	15	-0.816		
Cc1ccncc1N(C)C(=O)[C@@H]1C[C@H]1CF (stereo in doubt)	1.01	1.01	-7.38	1.67	4.57			
C=CC(=O)N(c1ccc(C(C)(C)C)cc1)C(C(=O)NC(C)(C)C)c1cncc(Cl)c1 (configuration not stated)	0.99	0.86	34.6	19.6	13.5	0		
O=C(CCl)N1CCN(Cc2cccc(Cl)c2)C[C@@H]1Cc1ccccc1 (stereo in doubt)	0.97	0.92	22.5	45.2	66.6		18.9	
Cn1nnnc1NC(=O)Cc1csc(C(C)(C)C)n1	0.99	1	1.85	5.13	0			
Cc1ccncc1NC(=O)Nc1cccc(Cl)c1	0.99	0.96	32.1	58.7	64.1	25.6	45.7	
Cc1ccnc(C)c1NC(=O)NCc1cccc(N2CCOCC2)c1	1	1	2.7	-9.74	0			
O=C(NC1CCCCC1NC(=O)C1CCCCC1)c1ccncc1 (configuration not stated)	1	1	-14.4	-20.6		0		
O=C(NCc1ccns1)Nc1cccc(CN2CCCC2=O)c1	1	0.97	-0.28	-2.05	0	0		

SMILES	relative solubility at 20 uM	relative solubility at 100 uM	inhibition ([1]; 20.0 µM) [%]	inhibition ([1]; 50.0 µM) [%]	inhibition ([2]; 50.0 µM) [%]	inhibition ([2]; 20.0 µM) [%]	IC50 [2] [µM]	IC50 [1] [µM]
C=CC(=O)N(c1ccc(C2(C)CC2)cc1)C(C(=O)Nc1ccc(OC)cc1)c1cccnc1 (configuration not stated)	0.96	0.62		12.6	0	0		
C=CC(=O)N1CCCN(Cc2ccccc2)CC1	1	1	0.947	9.99		0		
Cc1cc(C)c(C)c(S(=O)(=O)N2CCN(C(=O)c3cc[nH]c(=O)c3)CC2)c1C	0.99	0.98	-1.5	5.56	0			
CCCNC(=O)C(C)NC(=O)N(C)Cc1csc(C)n1 (configuration not stated)	1	1	0.814	-2.74		0		
O=C1CN(c2nnc(C3CCC(=O)N3)n2CCn2cc(Cl)cn2)CCN1 (configuration not stated)	1	1	-2.26	-0.405	35.3			
CC(C)c1ncncc1NC(=O)C(C)c1cccc(Cl)c1 (configuration not stated)	1.01	1	6.43	19	1.6			
C=CC(=O)N(c1ccc(C(C)(C)C)cc1)C(C(=O)NC(C)(C)C)c1cncc(OC)c1C (configuration not stated)	0.99	0.95	8.6	28.6	39	8.1		
O=C(NCCNc1ccccc1)c1cc(=O)[nH]c2ccccc12	1	0.98	32	61.6	35.4			
CN(C)C/C=C/C(=O)NCc1c[nH]c2ccccc12	0.96	0.98	3.86	0.744		0		
NC(=O)C1Cc2ccccc2N(CC(=O)Nc2cnccn2)C1 (configuration not stated)	1	0.93	0.0292	6.19	0	0		
CC(c1cccc(NC(=O)Cc2cnccc2Cl)c1)N1CCOCC1 (configuration not stated)	0.97	0.92	2.12	3.92	3.87	0		
C=CC(=O)N(c1ccc(C(C)(C)C)cc1)C(C(=O)NCCc1cccc(F)c1)c1cccnc1 (configuration not stated)	0.98	0.55	63.3	83.4	100	91.8	3.36	
Cc1cc(Cl)cc(NC(=O)Nc2cccnc2)c1	1	1		12.7	35.4	0		
Cc1ccnn1CC(=O)NCC(NC(=O)C(C)C#N)c1ccccc1 (configuration not stated)	0.99	1	-13.2	-6.86	-26.1			
CC(=O)NCCc1c[nH]c2c(CN3CCN(C(=O)CCl)CC3)cccc12	0.95	0.95	62.8	85.7	100		11.5	
C=CC(=O)N(c1ccc(C(C)(C)CC)cc1)C(C(=O)Nc1ccccc1Br)c1cccnc1 (configuration not stated)	1	1		-11.5	8.03	0		
COC(=O)C(c1ccccc1Cl)N1CCc2sccc2C1 (configuration not stated)	0.97	0.79	-3.49	4.1	0			
O=C(O)[C@@H](Cc1nc(=O)cc[nH]1)NCc1ccc(Cl)s1 (stereo in doubt)	1.01	1	6.7	4.85	2.07			
Cn1cc(S(N)(=O)=O)cc1CC(=O)Nc1cccc(C(=O)NCc2ccccn2)c1	1	1	-21.5	-0.596	0			
O=C(c1cc(=O)[nH]c2ccc(F)cc12)N1CCN(S(=O)(=O)c2ccc(Cl)cc2)CC1	0.98	0.81	-1.84	11.4	50			
Cc1cc(NC(=O)Cc2cncnc2)cc(OC2CC(=O)N2)c1 (configuration not stated)	1.01	1	49.3	72.7	45			
Cc1cccc(C2CN(C(=O)CCl)Cc3ccccc32)c1 (configuration not stated)	1	0.93	98.1	99.7	53.8		0.42	
O=C(c1cc2sccc2s1)N1CCOC(CN2CCOCC2)C1 (configuration not stated)	1	0.99	4.6	7.85	2.34			

Reference: the COVID Moonshot data (paper PMC11187573), “Identification of SARS-CoV-2 Mpro inhibitors through deep reinforcement learning for de novo drug design and computational chemistry approaches” (RSC Medicinal Chemistry, 2024)
